≈ marks a conversion by molar mass, not a printed value. Structures can show the parent of a compound that is named as a salt. Where two headings read alike, the source gives them in different places.
Experiments:
E. coli TK-3 = experiment: Antibacterial activity (MIC, agar dilution) against E. coli TK-3*; assay type: cell-based; details: Escherichia coli
Protocol: (§1) According to Chemotherapy, vol. 29, No. 1, pp. 76-79 (1981), bacterium was cultured in peptone broth manufactured by Eiken Kagaku K.K. at 37° C. for 20 hours to prepare a bacterial solution of 10^8 cells/ml, and one loopful of the bacterial solution was inoculated into Heart Infusion agar medium (manufactured by Eiken Kagaku K.K.) containing a drug, cultured at 37° C. for 20 hours, after which growth of bacterium was observed. The minimum concentration at which the growth of bacterium was prevented was indicated as MIC (μg/ml).
(§2) *means that β-lactamaseproducing bacteria.

S. marcescens W-8 = experiment: Antibacterial activity (MIC, agar dilution) against S. marcescens W-8*; assay type: cell-based; details: Serratia marcescens
Protocol: as §1, §2

[1] = W8, S. marcescens W-8* (β-lactamase-producing bacteria), Heart Infusion agar, 37° C., 20 hours, one loopful of 10^8 cells/ml, read-out: MIC
[2] = TK3, E. coli TK-3* (β-lactamase-producing bacteria), Heart Infusion agar, 37° C., 20 hours, one loopful of 10^8 cells/ml, read-out: MIC

MIC (S. marcescens W-8; [1]) [µg/mL]	MIC (E. coli TK-3; [2]) [µg/mL]	SMILES	MIC (E. coli TK-3; TK3, 20 h) [µg/mL]	MIC (S. marcescens W-8; W8, 20 h) [µg/mL]
–	–	NC(=O)NN1CCN([C@]2(C(=O)O)CN3C(=O)[C@@H](NC(=O)[C@@H](c4ccc(O)c(F)c4)S(=O)(=O)O)[C@H]3S2)C1=O [compound 39]	3.13 (≈ 5.56 µM)	0.78 (≈ 1.39 µM)
–	–	NC(=O)NN1CCN([C@]2(C(=O)O)CN3C(=O)[C@@H](NC(=O)[C@@H](c4ccc(O)cc4)S(=O)(=O)O)[C@H]3S2)C1=O [compound 40]	3.13 (≈ 5.75 µM)	0.78 (≈ 1.43 µM)
0.2 (≈ 0.308 µM)	0.2 (≈ 0.308 µM)	NC(=O)NN=CC=NN1CCN([C@]2(C(=O)O)CN3C(=O)[C@@H](NC(=O)[C@@H](c4cc(O)c(O)cc4Cl)S(=O)(=O)O)[C@H]3S2)C1=O [compound 43]	–	–
6.25 (≈ 11.5 µM)	6.25 (≈ 11.5 µM)	NS(=O)(=O)NN1CCN([C@]2(C(=O)O)CN3C(=O)[C@@H](NC(=O)C(C(=O)O)c4ccc(O)cc4)[C@H]3S2)C1=O (stereo partly drawn) [compound 44]	–	–
–	–	C=CC(=O)NN1CCN([C@]2(C(=O)O)CN3C(=O)[C@@H](NC(=O)C(C(=O)O)c4ccc(O)cc4)[C@H]3S2)C1=O (stereo partly drawn) [compound 45]	3.13 (≈ 6.03 µM)	3.13 (≈ 6.03 µM)
6.25 (≈ 11.5 µM)	12.5 (≈ 23 µM)	Cn1cc(C=NN2CCN([C@]3(C(=O)O)CN4C(=O)[C@@H](NC(=O)C(C(=O)O)c5ccccc5)[C@H]4S3)C2=O)nn1 (stereo partly drawn) [compound 46]	–	–
0.1 (≈ 0.158 µM)	0.1 (≈ 0.158 µM)	O=C(O)C=CC=NN1CCN([C@]2(C(=O)O)CN3C(=O)[C@@H](NC(=O)C(c4cc(O)c(O)cc4Cl)S(=O)(=O)O)[C@H]3S2)C1=O (stereo partly drawn) [compound 48]	–	–
–	–	C=CC=NN1CCN([C@]2(C(=O)O)CN3C(=O)[C@@H](NC(=O)C(c4cc(O)c(O)cc4Cl)S(=O)(=O)O)[C@H]3S2)C1=O (stereo partly drawn) [compound 49]	≤ 0.05	≤ 0.05
> 200	> 200	CCN1CCN(C(=O)N[C@@H](C(=O)N[C@@H]2C(=O)N3C[C@@](C(=O)O)(N4CCN(C)C4=O)S[C@H]23)c2ccccc2)C(=O)C1=O [compound 51, Sodium salt of (3R,5R,6R)3-carboxy-6-[D-α-(4-ethyl-2,3-dioxo-1-piperazinecarboxamio)-α-phenylacetamido]-3-(3-methyl-2-oxoimidazolidin-1-yl)-7-oxo-4-tha-1-azabicyclo[3.2.0]heptane, reference compound]	–	–

SMILES	MIC (S. marcescens W-8; [1]) [µg/mL]	MIC (E. coli TK-3; [2]) [µg/mL]	MIC (E. coli TK-3; TK3, 20 h) [µg/mL]	MIC (S. marcescens W-8; W8, 20 h) [µg/mL]
NC(=O)NN1CCN([C@]2(C(=O)O)CN3C(=O)[C@@H](NC(=O)[C@@H](c4ccc(O)cc4Cl)S(=O)(=O)O)[C@H]3S2)C1=O [compound 37]	0.2 (≈ 0.345 µM)	–	0.78 (≈ 1.35 µM)	–
NC(=O)NN1CCN([C@]2(C(=O)O)CN3C(=O)[C@@H](NC(=O)[C@@H](c4ccc(O)cc4F)S(=O)(=O)O)[C@H]3S2)C1=O [compound 38]	–	1.56 (≈ 2.77 µM)	–	0.78 (≈ 1.39 µM)
NC(=O)NN1CCN([C@]2(C(=O)O)CN3C(=O)[C@@H](NC(=O)[C@@H](c4ccc(O)c(O)c4)S(=O)(=O)O)[C@H]3S2)C1=O [compound 41]	1.56 (≈ 2.78 µM)	–	3.13 (≈ 5.58 µM)	–
NC(=O)NN1CCN([C@]2(C(=O)O)CN3C(=O)[C@@H](NC(=O)[C@@H](c4cc(O)c(O)cc4Cl)S(=O)(=O)O)[C@H]3S2)C1=O [compound 42]	–	0.2 (≈ 0.336 µM)	–	0.39 (≈ 0.655 µM)
CON=C(C(=O)N[C@@H]1C(=O)N2C[C@@](C(=O)O)(N3CCN(N=C4SCCS4)C3=O)S[C@H]12)c1csc(N)n1 [compound 47]	6.25 (≈ 10.9 µM)	–	0.78 (≈ 1.36 µM)	–
O=C(O)C(C(=O)N[C@@H]1C(=O)N2C[C@@](C(=O)O)(N3CCN(N=C4C=CCC4)C3=O)S[C@H]12)c1ccccc1 (stereo partly drawn) [compound 50]	0.1 (≈ 0.195 µM)	–	0.39 (≈ 0.759 µM)	–

From patent publication US5185330A, “Penam derivatives and salts thereof, and antibacterial agent comprising the same” (Toyama Chemical Co., Ltd., priority 1989, dated 1993)
